Experiments:
[1] = biological target: T1, Tryptophan 5-hydroxylase 1 (Homo sapiens, UniProt P17752); assay: Inhibition of TPH1
T1 sequence (P17752 whole entry): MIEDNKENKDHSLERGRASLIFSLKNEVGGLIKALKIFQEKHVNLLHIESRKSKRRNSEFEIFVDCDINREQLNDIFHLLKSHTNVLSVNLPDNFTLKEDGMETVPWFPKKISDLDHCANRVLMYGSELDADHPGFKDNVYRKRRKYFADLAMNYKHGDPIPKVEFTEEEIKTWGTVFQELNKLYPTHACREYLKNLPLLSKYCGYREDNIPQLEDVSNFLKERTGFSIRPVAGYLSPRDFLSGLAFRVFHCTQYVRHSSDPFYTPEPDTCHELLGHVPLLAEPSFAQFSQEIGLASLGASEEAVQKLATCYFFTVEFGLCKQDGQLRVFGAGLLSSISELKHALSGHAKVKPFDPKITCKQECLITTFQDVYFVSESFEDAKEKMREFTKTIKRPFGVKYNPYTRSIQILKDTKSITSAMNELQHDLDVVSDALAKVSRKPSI

[2] = biological target: T2, Tryptophan 5-hydroxylase 1 (Rattus norvegicus, UniProt P09810); assay: Inhibition of TPH1 in RBL cells assessed as inhibition of serotonin biosynthesis; assay type: cell-based
T2 sequence (P09810 whole entry): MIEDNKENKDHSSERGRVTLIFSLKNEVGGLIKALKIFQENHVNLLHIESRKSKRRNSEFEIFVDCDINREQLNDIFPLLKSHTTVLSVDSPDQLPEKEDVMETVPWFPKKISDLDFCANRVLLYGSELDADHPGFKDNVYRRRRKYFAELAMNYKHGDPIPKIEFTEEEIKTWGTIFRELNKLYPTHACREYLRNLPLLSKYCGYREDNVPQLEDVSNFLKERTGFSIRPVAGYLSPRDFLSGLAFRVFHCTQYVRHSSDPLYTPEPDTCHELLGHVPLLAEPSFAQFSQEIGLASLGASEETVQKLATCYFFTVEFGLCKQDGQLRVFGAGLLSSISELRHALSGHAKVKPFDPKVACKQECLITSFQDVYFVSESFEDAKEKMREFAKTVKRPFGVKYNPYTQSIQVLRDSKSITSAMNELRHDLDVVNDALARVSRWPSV

[3] = test system: RBL; assay: Ratio of EC50 for TPH1 in RBL cells to IC50 for TPH1; assay type: cell-based

| SMILES | IC50 [1] | EC50 [2] | Ratio [3] |
| --- | --- | --- | --- |
| C[C@@H](Nc1nc(N)nc(-c2ccn(C[C@H](N)C(=O)O)n2)n1)c1ccc2ccccc2c1 | 12600 nM |  |  |
| COc1ccc(CNc2cnc(-c3ccc(C[C@H](N)C(=O)O)cc3)cn2)cc1OC | 69 nM |  |  |
| N[C@@H](Cc1ccc(-c2cnc(NCc3cnc4ccccc4c3)cn2)cc1)C(=O)O | 190 nM |  |  |
| Cc1cccc(-c2ccccc2C(Oc2cc(-c3ccc(C[C@H](N)C(=O)O)cc3)nc(N)n2)C(F)(F)F)c1 (stereo partly specified) | 70 nM | 56 nM |  |
| Nc1nc(OC(c2sccc2-c2ccco2)C(F)(F)F)cc(-c2ccc(C[C@H](N)C(=O)O)cc2)n1 (stereo partly specified) | 54 nM | 63 nM |  |
| N#Cc1ccc(CNc2cnc(-c3ccc(C[C@H](N)C(=O)O)cc3)cn2)cc1 | 110 nM |  |  |
| C[C@@H](Nc1nc(N)nc(N2CCC(C[C@H](N)C(=O)O)CC2)n1)c1ccc2ccccc2c1 | 770 nM |  |  |
| COc1ccc(CNc2cnc(-c3ccc(C[C@H](N)C(=O)O)cc3)cn2)cc1OC1CCCC1 | 45 nM |  |  |
| N[C@@H](Cc1ccc(-c2cnc(NCc3ccoc3)cn2)cc1)C(=O)O | 960 nM |  |  |
| N[C@@H](Cc1ccc(-c2cnc(NCc3ccc(-c4ccccc4)cc3)cn2)cc1)C(=O)O | 44 nM |  |  |
| C[C@@H](Nc1nc(N)nc(-c2ccc(CC(N)C(=O)O)c(F)c2)n1)c1ccc2ccccc2c1 (stereo partly specified) | 200 nM |  |  |
| C[C@@H](Nc1nc(N)nc(-c2ccc(CC(C)(N)C(=O)O)cc2)n1)c1ccc2ccccc2c1 (stereo partly specified) | 11100 nM |  |  |
| Cc1ccccc1-c1ccccc1CNc1cnc(-c2ccc(C[C@H](N)C(=O)O)cc2)cn1 | 40 nM |  |  |
| C[C@@H](Oc1cc(-c2ccc(C[C@H](N)C(=O)O)cc2)nc(N)n1)c1ccc2ccccc2c1 | 380 nM | 11000 nM |  |
| C[C@@H](Nc1nc(N)nc(-c2ccc(C(N)CC(=O)O)cc2)n1)c1ccc2ccccc2c1 (stereo partly specified) | 3770 nM |  |  |
| Nc1nc(OC(c2ccc3ccccc3c2)C(F)(F)F)cc(-c2ccc(C[C@H](N)C(=O)O)cc2)n1 (stereo partly specified) | 180 nM | 510 nM | 3 |

From ChEMBL document CHEMBL1155012, “Modulation of peripheral serotonin levels by novel tryptophan hydroxylase inhibitors for the potential treatment of functional gastrointestinal disorders” (J Med Chem, 2008)
